Results published in ChEMBL document CHEMBL5356958, “Discovery of a Highly Potent and Selective MYOF Inhibitor with Improved Water Solubility for the Treatment of Gastric Cancer” (J Med Chem, 2023).
Active and inactive are the calls of the source. No cut-off for these calls is given here.

Experiments:
MKN-45 [1] = test: Inhibition of epithelial mesenchymal transition in human MKN-45 cells assessed as downregulation in N-cadherin level by Western blotting analysis; assay type: functional, cell-based
MKN-45 [2] = test: Induction of apoptosis in human MKN-45 cells assessed as early apoptotic cells at 200 nM incubated for 48 hrs by Annexin V-FITC/PI staining based flow cytometry analysis (reference value: 0.5%); assay type: functional
[3] = AUC(0 to t) in ICR mouse at 1 mg/kg, iv; assay type: ADME, organism-based; set-up: dose 1 mg/kg, route iv; details: in vivo
[4] = Antiproliferative activity against HAF cells incubated for 48 hrs by SRB assay; assay type: functional, cell-based; details: Homo sapiens
Cytochrome P450 2D6 = Cytochrome P450 2D6 (Homo sapiens, UniProt P10635); test: Inhibition of CYP2D6 in human liver microsomes; assay type: ADME, Microsome
Cytochrome P450 2D6, sequence (P10635 whole entry): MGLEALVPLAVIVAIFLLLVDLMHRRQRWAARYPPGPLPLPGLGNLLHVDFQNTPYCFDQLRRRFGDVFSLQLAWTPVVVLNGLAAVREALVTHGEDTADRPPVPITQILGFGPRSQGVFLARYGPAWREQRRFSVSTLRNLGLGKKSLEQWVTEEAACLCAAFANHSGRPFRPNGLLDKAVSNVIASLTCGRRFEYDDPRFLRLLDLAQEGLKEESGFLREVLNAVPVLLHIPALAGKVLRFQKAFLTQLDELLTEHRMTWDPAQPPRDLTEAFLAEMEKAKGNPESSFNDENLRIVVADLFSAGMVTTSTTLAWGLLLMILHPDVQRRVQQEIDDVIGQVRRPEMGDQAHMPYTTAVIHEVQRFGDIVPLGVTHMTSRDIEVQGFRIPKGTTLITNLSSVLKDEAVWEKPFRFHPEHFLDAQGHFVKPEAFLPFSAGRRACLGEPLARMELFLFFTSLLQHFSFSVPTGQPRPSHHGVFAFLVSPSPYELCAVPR

SGC-7901 = test: Antiproliferative activity against human SGC-7901 cells incubated for 48 hrs by SRB assay; assay type: functional, cell-based; details: SGC-7901, 48 h
[5] = Cmax in ICR mouse at 1 mg/kg, iv; assay type: ADME, organism-based; set-up: dose 1 mg/kg, route iv; details: in vivo
[6] = Toxicity in BALB/c mouse assessed as change in liver morphology at 15 to 30 mg/kg, ip measured every 3 days for 21 days by HE staining based assay; assay type: organism-based; details: in vivo, 504 h, dose 15-30 mg/kg, time 21 day
[7] = biological target: Serine/threonine-protein kinase AKT (Homo sapiens) (UniProt P31751+Q9Y243+P31749); test: Inhibition of AKT phosphorylation in human MKN-45 cells by Western blot analysis; assay type: cell-based
Serine/threonine-protein kinase AKT (Homo sapiens), sequence (P31749 whole entry, looked up): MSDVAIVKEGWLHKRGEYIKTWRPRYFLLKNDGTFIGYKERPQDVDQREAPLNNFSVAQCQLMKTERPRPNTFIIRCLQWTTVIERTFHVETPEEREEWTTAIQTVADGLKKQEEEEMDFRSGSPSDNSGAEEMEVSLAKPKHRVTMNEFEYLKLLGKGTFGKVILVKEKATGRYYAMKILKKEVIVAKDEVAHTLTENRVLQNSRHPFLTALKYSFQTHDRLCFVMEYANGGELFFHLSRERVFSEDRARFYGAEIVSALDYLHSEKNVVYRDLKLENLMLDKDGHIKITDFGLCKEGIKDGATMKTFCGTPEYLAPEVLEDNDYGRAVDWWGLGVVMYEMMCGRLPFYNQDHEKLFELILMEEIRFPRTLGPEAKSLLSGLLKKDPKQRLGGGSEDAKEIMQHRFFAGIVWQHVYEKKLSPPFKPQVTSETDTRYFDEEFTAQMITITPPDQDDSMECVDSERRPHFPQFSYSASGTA
Serine/threonine-protein kinase AKT (Homo sapiens), sequence (P31751 whole entry, looked up): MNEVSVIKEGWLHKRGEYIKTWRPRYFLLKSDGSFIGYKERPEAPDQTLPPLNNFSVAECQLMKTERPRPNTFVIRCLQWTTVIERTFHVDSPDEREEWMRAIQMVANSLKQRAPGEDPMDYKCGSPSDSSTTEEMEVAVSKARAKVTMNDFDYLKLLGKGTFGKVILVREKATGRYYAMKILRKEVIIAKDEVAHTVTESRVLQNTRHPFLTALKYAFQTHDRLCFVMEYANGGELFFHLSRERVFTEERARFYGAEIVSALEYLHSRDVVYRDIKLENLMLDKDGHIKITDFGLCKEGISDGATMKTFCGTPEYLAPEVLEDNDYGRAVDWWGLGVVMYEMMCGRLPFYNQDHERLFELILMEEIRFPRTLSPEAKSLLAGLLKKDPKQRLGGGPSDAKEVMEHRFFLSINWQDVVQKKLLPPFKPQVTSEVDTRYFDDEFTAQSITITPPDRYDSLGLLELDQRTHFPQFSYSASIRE
Serine/threonine-protein kinase AKT (Homo sapiens), sequence (Q9Y243 whole entry, looked up): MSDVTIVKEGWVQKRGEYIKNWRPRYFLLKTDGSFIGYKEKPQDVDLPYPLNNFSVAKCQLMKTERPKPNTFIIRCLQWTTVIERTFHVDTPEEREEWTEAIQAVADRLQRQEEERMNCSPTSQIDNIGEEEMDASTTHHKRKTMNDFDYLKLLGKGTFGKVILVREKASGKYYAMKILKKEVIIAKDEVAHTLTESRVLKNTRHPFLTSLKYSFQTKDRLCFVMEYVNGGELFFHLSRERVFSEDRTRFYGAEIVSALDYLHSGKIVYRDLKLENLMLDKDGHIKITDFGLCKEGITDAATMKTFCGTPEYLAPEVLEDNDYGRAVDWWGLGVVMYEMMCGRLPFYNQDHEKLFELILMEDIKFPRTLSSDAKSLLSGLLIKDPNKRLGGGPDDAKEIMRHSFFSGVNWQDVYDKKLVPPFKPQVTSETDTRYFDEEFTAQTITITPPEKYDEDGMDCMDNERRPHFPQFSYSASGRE

MKN-45 [8] = test: Induction of apoptosis in human MKN-45 cells assessed as late apoptotic cells at 100 nM incubated for 48 hrs by Annexin V-FITC/PI staining based flow cytometry analysis (reference value: 2.6%); assay type: functional
Myoferlin = Myoferlin (Homo sapiens, UniProt Q9NZM1); test: Binding affinity to MYOF in human MKN45 cells at 50 to 100 uM incubated for 1 hr by CETSA; assay type: cell-based; details: MKN-45, dose 50-100 µM
Myoferlin, sequence (Q9NZM1 whole entry): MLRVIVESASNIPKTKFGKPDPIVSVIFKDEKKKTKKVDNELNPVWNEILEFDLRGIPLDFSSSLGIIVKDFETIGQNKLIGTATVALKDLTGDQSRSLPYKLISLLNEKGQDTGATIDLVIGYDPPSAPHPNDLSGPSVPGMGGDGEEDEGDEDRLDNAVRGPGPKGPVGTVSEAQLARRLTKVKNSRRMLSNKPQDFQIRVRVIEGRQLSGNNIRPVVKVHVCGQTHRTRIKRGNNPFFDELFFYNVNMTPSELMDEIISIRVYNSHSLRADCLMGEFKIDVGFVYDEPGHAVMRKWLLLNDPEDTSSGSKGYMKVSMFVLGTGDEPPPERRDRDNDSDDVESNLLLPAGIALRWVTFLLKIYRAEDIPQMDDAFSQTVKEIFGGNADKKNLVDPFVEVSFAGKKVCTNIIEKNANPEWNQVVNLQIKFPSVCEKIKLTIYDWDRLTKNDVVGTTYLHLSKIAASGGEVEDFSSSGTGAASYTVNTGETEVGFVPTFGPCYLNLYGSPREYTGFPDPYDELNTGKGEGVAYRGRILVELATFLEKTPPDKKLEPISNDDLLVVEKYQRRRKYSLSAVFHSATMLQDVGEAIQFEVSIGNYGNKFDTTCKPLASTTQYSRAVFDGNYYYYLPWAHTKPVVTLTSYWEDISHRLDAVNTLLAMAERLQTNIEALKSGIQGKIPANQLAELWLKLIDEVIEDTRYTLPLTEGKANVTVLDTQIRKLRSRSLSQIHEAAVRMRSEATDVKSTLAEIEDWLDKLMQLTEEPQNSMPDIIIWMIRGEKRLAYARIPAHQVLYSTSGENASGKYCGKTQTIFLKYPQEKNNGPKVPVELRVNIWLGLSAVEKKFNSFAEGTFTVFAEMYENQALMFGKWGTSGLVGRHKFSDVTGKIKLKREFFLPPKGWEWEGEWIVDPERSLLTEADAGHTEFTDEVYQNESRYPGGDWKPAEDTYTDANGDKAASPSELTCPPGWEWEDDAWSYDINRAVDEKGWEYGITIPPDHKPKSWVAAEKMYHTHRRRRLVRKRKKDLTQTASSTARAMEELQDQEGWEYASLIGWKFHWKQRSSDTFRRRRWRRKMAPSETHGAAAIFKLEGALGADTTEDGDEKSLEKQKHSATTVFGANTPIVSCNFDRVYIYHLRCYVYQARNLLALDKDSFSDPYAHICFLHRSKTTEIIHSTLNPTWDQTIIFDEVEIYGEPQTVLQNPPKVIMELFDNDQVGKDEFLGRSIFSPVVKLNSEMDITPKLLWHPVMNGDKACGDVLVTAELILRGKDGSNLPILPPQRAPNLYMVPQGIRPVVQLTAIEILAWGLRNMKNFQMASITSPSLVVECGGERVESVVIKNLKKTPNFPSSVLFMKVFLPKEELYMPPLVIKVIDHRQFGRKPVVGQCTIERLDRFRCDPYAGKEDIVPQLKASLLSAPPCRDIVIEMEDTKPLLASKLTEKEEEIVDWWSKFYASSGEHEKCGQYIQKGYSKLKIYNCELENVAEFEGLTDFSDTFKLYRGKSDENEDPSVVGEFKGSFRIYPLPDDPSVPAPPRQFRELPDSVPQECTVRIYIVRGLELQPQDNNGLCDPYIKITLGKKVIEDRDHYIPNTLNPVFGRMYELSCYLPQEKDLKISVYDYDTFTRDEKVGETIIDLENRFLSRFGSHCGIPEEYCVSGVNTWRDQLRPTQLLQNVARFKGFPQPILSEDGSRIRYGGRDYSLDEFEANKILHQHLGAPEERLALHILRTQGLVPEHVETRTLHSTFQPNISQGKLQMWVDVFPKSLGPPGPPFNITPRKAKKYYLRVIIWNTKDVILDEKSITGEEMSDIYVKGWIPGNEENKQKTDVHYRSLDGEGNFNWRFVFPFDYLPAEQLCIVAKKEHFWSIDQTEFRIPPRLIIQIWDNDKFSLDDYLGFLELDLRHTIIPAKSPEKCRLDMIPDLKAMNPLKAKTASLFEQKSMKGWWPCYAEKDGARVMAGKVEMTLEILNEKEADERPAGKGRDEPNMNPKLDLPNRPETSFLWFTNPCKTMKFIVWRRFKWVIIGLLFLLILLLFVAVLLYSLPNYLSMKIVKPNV

Cytochrome P450 2C19 = Cytochrome P450 2C19 (Homo sapiens, UniProt P33261); test: Inhibition of CYP2C19 in human liver microsomes; assay type: ADME, Microsome
Cytochrome P450 2C19, sequence (P33261 whole entry): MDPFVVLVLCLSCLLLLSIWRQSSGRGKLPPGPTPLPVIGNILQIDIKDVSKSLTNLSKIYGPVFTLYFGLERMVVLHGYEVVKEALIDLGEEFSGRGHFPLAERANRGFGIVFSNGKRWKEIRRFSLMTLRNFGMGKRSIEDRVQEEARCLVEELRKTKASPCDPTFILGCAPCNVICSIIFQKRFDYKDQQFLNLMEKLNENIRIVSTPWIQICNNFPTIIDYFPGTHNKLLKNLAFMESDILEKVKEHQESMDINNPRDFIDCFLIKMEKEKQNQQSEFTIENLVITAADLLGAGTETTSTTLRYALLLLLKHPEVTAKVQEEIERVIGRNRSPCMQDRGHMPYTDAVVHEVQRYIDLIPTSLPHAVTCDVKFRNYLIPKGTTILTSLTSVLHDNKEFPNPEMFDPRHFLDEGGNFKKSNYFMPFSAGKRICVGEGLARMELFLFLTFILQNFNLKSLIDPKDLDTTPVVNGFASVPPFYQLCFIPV

CWR22R = test: Antiproliferative activity against human 22Rv1 cells incubated for 48 hrs by SRB assay; assay type: functional, cell-based; details: 22Rv1, 48 h

AUC(0-t) [3]: 751 ng·h/mL | IC50 (Cytochrome P450 2D6): > 50 µM | IC50 (SGC-7901): 0.44 µM | Cmax [5]: 1910 ng/mL | inhibition [7]: Active | Activity (Myoferlin): Active | IC50 (Cytochrome P450 2C19): 18.8 µM
Structure (SMILES): CCc1nc(-c2ccc(OC)cc2)n(-c2cccc(C(=O)NCCCCn3nccn3)c2)n1
inhibition (MKN-45 [1]): Dose-Dependent Effect | Activity (MKN-45 [2]): 1% | IC50 [4]: > 10 µM | Activity [6]: Non-Toxic | Activity (MKN-45 [8]): 2.8% | IC50 (CWR22R): > 10 µM
